The record followed here is publication PMC2193707 (The Journal of Experimental Medicine, 2002).

For test [1], the target named is T1, mCD22 (cellular CD22 on mouse B cells) (Mus musculus, UniProt P35329).
T1 sequence (P35329 22-868): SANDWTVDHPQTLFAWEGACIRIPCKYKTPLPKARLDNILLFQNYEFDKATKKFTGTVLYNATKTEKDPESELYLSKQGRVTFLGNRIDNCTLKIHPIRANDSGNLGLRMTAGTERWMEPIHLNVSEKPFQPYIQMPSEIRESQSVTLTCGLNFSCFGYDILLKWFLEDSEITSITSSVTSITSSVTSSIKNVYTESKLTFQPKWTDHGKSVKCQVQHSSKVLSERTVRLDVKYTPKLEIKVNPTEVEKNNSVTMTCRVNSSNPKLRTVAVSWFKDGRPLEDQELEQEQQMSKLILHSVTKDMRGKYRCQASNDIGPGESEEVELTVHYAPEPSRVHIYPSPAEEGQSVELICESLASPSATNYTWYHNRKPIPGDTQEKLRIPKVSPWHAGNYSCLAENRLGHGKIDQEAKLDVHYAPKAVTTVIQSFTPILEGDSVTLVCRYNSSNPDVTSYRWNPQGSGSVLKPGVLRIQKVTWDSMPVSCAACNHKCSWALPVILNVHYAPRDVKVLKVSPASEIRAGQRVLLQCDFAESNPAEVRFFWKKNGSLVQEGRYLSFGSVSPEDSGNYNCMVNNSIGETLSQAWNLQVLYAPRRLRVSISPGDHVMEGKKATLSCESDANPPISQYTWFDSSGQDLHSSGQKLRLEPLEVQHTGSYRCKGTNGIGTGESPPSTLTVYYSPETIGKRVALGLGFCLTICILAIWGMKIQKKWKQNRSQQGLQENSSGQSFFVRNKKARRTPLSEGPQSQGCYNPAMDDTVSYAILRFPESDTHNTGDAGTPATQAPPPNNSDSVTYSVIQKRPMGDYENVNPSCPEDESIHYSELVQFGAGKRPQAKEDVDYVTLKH
The experiment in a line: flow cytometry, inhibition of NeuGc2,6-PAA-bio probe staining. Format: cell-based. Particulars: sialidase-treated mouse B cells (B220+); preincubation on ice 10 min.

Test [2] has as its target T2, mCD22d1–3-Fc (Mus musculus, UniProt P35329).
T2 sequence (P35329 22-347 limits assumed): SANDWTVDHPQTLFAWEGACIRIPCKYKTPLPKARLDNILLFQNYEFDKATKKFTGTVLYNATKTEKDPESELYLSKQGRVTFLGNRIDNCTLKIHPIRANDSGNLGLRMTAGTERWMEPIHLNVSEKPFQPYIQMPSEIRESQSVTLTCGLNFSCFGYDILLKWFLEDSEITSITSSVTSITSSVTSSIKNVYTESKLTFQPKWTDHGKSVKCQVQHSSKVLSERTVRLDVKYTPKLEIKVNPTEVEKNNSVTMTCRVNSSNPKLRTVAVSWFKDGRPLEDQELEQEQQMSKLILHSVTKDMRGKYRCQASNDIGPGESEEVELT
Nature of the test: hapten inhibition of […]-Fc-chimera binding to fixed target cells.

Test [3] concerns the target T3, hCD22 (cellular CD22 on Daudi cells) (Homo sapiens, UniProt P20273).
T3 sequence (P20273 20-847): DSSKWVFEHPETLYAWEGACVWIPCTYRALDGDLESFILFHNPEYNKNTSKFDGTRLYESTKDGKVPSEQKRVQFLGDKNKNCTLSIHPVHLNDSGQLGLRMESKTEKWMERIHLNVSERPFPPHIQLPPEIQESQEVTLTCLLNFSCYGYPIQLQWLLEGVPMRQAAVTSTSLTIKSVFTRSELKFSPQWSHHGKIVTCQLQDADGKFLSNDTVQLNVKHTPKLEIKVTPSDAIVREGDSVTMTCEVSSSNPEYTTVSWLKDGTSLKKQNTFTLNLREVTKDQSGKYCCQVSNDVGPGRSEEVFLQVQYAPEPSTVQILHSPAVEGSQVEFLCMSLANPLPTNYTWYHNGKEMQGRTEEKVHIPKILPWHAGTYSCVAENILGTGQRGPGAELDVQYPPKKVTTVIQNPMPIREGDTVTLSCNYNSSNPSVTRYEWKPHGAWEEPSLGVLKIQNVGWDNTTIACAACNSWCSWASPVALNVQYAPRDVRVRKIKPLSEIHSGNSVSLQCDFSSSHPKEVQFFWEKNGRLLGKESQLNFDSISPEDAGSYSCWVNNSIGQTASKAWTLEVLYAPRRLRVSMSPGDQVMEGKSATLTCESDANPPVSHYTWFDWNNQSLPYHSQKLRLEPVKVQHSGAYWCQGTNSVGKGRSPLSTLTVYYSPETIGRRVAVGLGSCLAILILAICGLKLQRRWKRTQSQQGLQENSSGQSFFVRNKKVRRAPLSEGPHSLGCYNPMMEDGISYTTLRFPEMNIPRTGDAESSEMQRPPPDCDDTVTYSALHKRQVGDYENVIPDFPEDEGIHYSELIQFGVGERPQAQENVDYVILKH
The experiment in a line: flow cytometry, inhibition of NeuGc2,6-PAA-bio probe staining. Particulars: sialidase-treated Daudi cells; preincubation on ice 10 min. It is filed as cell-based. For orientation: In flow cytometry, cells or beads pass a laser one at a time.

For test [4], the target named is mSnd1–3-Fc (Mus musculus, UniProt Q62230). Nature of the test: hapten inhibition of […]-Fc-chimera binding to fixed target cells.
For test [5], the target named is T4, hCD22d1–3-Fc (Homo sapiens, UniProt P20273).
T4 sequence (P20273 20-330 limits assumed): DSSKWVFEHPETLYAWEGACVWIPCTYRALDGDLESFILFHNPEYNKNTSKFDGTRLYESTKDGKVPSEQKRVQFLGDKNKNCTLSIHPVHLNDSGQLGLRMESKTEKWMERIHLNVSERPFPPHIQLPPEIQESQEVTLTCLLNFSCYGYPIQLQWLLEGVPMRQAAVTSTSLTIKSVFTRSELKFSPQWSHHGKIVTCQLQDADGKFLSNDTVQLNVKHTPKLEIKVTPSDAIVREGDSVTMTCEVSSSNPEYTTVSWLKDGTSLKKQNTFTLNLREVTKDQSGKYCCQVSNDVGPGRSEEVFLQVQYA
The test is described as above.

mSnd1–3-Fc, sequence (Q62230 20-325 limits assumed): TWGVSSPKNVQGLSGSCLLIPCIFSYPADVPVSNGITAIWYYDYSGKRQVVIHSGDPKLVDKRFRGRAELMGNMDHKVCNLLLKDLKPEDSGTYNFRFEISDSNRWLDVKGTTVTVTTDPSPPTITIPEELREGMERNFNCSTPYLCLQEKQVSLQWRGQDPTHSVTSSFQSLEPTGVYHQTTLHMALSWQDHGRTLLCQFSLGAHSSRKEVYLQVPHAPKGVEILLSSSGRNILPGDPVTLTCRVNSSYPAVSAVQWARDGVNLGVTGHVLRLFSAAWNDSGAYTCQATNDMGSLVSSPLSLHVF

Regarding `CO[C@]1(C(=O)O)C[C@H](O)[C@@H](NC(C)=O)[C@H]([C@H](O)[C@H](O)CNC(=O)Cc2ccc(-c3ccccc3)cc2)O1` [BPAc-Neu5Ac, Methyl-a-9-N-(biphenyl-4-acetyl)-amino-9-deoxy-Neu5Ac], the “flow cytometry, inhibition of NeuGc2,6-PAA-bio probe staining” value in test [1] was “performed on mouse B cells, BPAc-Neu5Ac was the more potent inhibitor”.

What is called IC50 is the concentration that gives 50% inhibition. The low end stands for greater potency in that assay, the high end for weaker potency in that assay. Regarding `CO[C@]1(C(=O)O)C[C@H](O)[C@@H](NC(C)=O)[C@H]([C@H](O)[C@H](O)CNC(=O)c2ccc(-c3ccccc3)cc2)O1` [BPC-Neu5Ac, Methyl-a-9-N-(biphenyl-4-carbonyl)-amino-9-deoxy-Neu5Ac], the IC50 came to 1220 µM in test [2], 52 µM in test [4] and 4 µM in test [5]. The “flow cytometry, inhibition of NeuGc2,6-PAA-bio probe staining” value in test [3] is given as “Pretreatment with BPC-Neu5Ac was most potent in inhibiting the binding of the synthetic CD22 ligand”.
